ChEMBL document CHEMBL1134424, “Synthesis and evaluation of caffeic acid amides as antioxidants” (Bioorg Med Chem Lett, 2001)

Experiment: Evaluated for the antioxidant property by measuring the inhibition of microsomal lipid peroxidation
Type: functional

| SMILES | IC50 |
| --- | --- |
| NC(=O)/C=C/c1ccc(O)c(O)c1 | 2200 nM |
| O=C(/C=C/c1ccc(O)c(O)c1)Nc1ccccc1 | 380 nM |
| CCNC(=O)/C=C/c1ccc(O)c(O)c1 | 2700 nM |
| CC(C)=CCNC(=O)/C=C/c1ccc(O)cc1 | 29100 nM |
| O=C(/C=C/c1ccc(O)c(O)c1)Nc1ccccc1O | 290 nM |
| COC(=O)C(Cc1ccc(O)cc1)NC(=O)/C=C/c1ccc(O)c(O)c1 (stereo not given) | 3200 nM |
| CC(C)NC(=O)/C=C/c1ccc(O)c(O)c1 | 3900 nM |
| O=C(/C=C/c1ccc(O)c(O)c1)NCc1ccccc1 | 1020 nM |
| O=C(/C=C/c1ccc(O)c(O)c1)N1CCCCC1 | 3600 nM |
| CC(C)CCNC(=O)/C=C/c1ccc(O)c(O)c1 | 1400 nM |
| O=C(/C=C/c1ccc(O)c(O)c1)NCCc1ccc(O)c(O)c1 | 590 nM |
| O=C(/C=C/c1ccc(O)c(O)c1)Nc1cccc(O)c1 | 370 nM |
| O=C(/C=C/c1ccc(O)c(O)c1)N1CCCC1 | 2400 nM |
| CCN(CC)C(=O)/C=C/c1ccc(O)c(O)c1 | 4100 nM |
| CC(C)=CCNC(=O)/C=C/c1ccc(O)c(O)c1 | 3400 nM |
| C=CCNC(=O)/C=C/c1ccc(O)c(O)c1 | 2200 nM |
| O=C(/C=C/c1ccc(O)c(O)c1)Nc1ccc(O)cc1 | 630 nM |
| CC(C)CNC(=O)/C=C/c1ccc(O)c(O)c1 | 2200 nM |
| O=C(/C=C/c1ccc(O)c(O)c1)N1CCOCC1 | 6100 nM |
| CNC(=O)/C=C/c1ccc(O)c(O)c1 | 6000 nM |
| O=C(/C=C/c1ccc(O)c(O)c1)NCCc1ccccc1 [CAFFEIC ACID PHENETHYL AMIDE] | 850 nM |
| O=C(O)/C=C/c1ccc(O)c(O)c1 [CAFFEIC ACID] | 3300 nM |
| O=C(O)/C=C/c1ccc(O)cc1 [COUMARIC ACID] | 100000 nM |
| O=c1c(O)c(-c2ccc(O)c(O)c2)oc2cc(O)cc(O)c12 [QUERCETIN] | 950 nM |
| Cc1c(C)c2c(c(C)c1O)CCC(C)(C(=O)O)O2 (stereo not given) [TROLOX] | 2800 nM |
